{"source": "patent US7405214B2", "about": "“Nucleoside derivatives and therapeutic use thereof” (Rexahn Corporation, priority 2004, dated 2008)", "key": {"MDA-MB-231 (breast)": {"test_system": "MDA-MB-231 (breast)", "assay": "SRB cell growth inhibition assay, MDA-MB-231", "type": "cell-based", "settings": "Homo sapiens, MDA-MB-231, 96 hours", "source_text": "(§1) Cancer cell lines to determine the effect of nucleoside compounds were obtained from the following sources: Human OVCAR-3 (ovary), MCF-7 (breast, hormone-dependent), MDA-MB-231 (breast), HeLa (cervix), PC3 (prostate), LNCap (prostate), HepG2 (liver), A549 (lung), NCI-H226 (lung), HT-29 (colon), HCT116 (colon), SK-MEL-28 (melanoma) and PANC-1 (pancreas) from the American Type Culture Collection (ATCC) (Manassas, Va.); U251 (brain) from Riken (Japan); MKN-45 (stomach) from DSMZ (Germany); UMRC2 (kidney) from the United States National Cancer Institute (Bethesda, Md.). […]\n(§2) The growth inhibition assay of RX-3117 against 16 human tumor cell lines was performed using the Sulforhodamine B (“SRB”) method (Skehan et al., J. National Cancer Institute, 82: 1107-1112 (1990)). […] After 5 minutes agitation in 10 mM Tris solution, the absorbance of each well was measured at 530 nm using Benchmark Plus Microplate reader (Bio-Rad Laboratories, Hercules, Calif.).\n(§3) To translate the OD530 values into the number of live cells in each well, the OD530 values were compared to those on standard OD530—versus—cell number curves generated for each cell line. The percent survival was calculated using the formula: % Survival=live cell number[test]/live cell number[control]×100\n(§4) The IC50 values were calculated by non-linear regression analysis."}, "HCT116 (colon)": {"test_system": "HCT116 (colon)", "assay": "SRB cell growth inhibition assay, HCT116", "type": "cell-based", "settings": "Homo sapiens, HCT-116, HCT116, 96 hours", "source_text": "as §1, §2, §3, §4"}, "NCI-H226 (lung)": {"test_system": "NCI-H226 (lung)", "assay": "SRB cell growth inhibition assay, NCI-H226", "type": "cell-based", "settings": "Homo sapiens, NCI-H226, 96 hours", "source_text": "as §1, §2, §3, §4"}, "HT-29 (colon)": {"test_system": "HT-29 (colon)", "assay": "SRB cell growth inhibition assay, HT-29", "type": "cell-based", "settings": "Homo sapiens, HT-29, 96 hours", "source_text": "as §1, §2, §3, §4"}, "MKN-45 (stomach)": {"test_system": "MKN-45 (stomach)", "assay": "SRB cell growth inhibition assay, MKN-45", "type": "cell-based", "settings": "Homo sapiens, MKN-45, 96 hours", "source_text": "as §1, §2, §3, §4"}, "[1]": {"test_system": "MCF-7 (breast, hormone-dependent)", "assay": "SRB cell growth inhibition assay, MCF-7", "type": "cell-based", "settings": "Homo sapiens, MCF7, MCF-7, 96 hours", "source_text": "as §1, §2, §3, §4"}, "A549 (lung)": {"test_system": "A549 (lung)", "assay": "SRB cell growth inhibition assay, A549", "type": "cell-based", "settings": "Homo sapiens, A549, 96 hours", "source_text": "as §1, §2, §3, §4"}, "PANC-1 (pancreas)": {"test_system": "PANC-1 (pancreas)", "assay": "SRB cell growth inhibition assay, PANC-1", "type": "cell-based", "settings": "Homo sapiens, PANC-1, 96 hours", "source_text": "as §1, §2, §3, §4"}, "PC3 (prostate)": {"test_system": "PC3 (prostate)", "assay": "SRB cell growth inhibition assay, PC3", "type": "cell-based", "settings": "Homo sapiens, PC3, 96 hours", "source_text": "as §1, §2, §3, §4"}, "HepG2 (liver)": {"test_system": "HepG2 (liver)", "assay": "SRB cell growth inhibition assay, HepG2", "type": "cell-based", "settings": "Homo sapiens, HepG2, 96 hours", "source_text": "as §1, §2, §3, §4"}, "OVCAR-3 (ovary)": {"test_system": "OVCAR-3 (ovary)", "assay": "SRB cell growth inhibition assay, OVCAR-3", "type": "cell-based", "settings": "Homo sapiens, OVCAR-3, 96 hours", "source_text": "as §1, §2, §3, §4"}, "U251 (brain)": {"test_system": "U251 (brain)", "assay": "SRB cell growth inhibition assay, U251", "type": "cell-based", "settings": "Homo sapiens, U-251, U251, 96 hours", "source_text": "as §1, §2, §3, §4"}, "UMRC2 (kidney)": {"test_system": "UMRC2 (kidney)", "assay": "SRB cell growth inhibition assay, UMRC2", "type": "cell-based", "settings": "Homo sapiens, UMRC2, 96 hours", "source_text": "as §1, §2, §3, §4"}, "HeLa (cervix)": {"test_system": "HeLa (cervix)", "assay": "SRB cell growth inhibition assay, HeLa", "type": "cell-based", "settings": "Homo sapiens, 96 hours", "source_text": "as §1, §2, §3, §4"}, "SK-MEL-28 (melanoma)": {"test_system": "SK-MEL-28 (melanoma)", "assay": "SRB cell growth inhibition assay, SK-MEL-28", "type": "cell-based", "settings": "Homo sapiens, SK-MEL-28, 96 hours", "source_text": "as §1, §2, §3, §4"}, "LnCap (prostate)": {"test_system": "LnCap (prostate)", "assay": "SRB cell growth inhibition assay, LnCap", "type": "cell-based", "settings": "Homo sapiens, 96 hours", "source_text": "as §1, §2, §3, §4"}, "[2]": {"test_system": "HCT116 human colon carcinoma xenografts", "assay": "Xenograft study in nude mice", "type": "in vivo", "settings": "intraperitoneal, three times per week day 5 to day 37; for tumor volume compared to the controls: after day 37", "protocol": "In order to observe the inhibition of growth of tumor in an animal model, an […] xenograft study of nude mice was conducted utilizing RX-3117. Suitable human cancer cell lines are those that have been tested already for inhibition of cancer cell growth, and particularly preferred was colon carcinoma HCT116. The antitumor efficacy of RX-3117 was evaluated against subcutaneously injected tumor xenografts in nude mice and tumor volume was measured after the treatment of RX-3117.\nHCT116 cell suspension (2×10^6 cells in 0.1 ml of RPMI) was injected subcutaneously into the right flank of six-week-old male athymic mice (BALB/c nu/nu) on day 0. A sufficient number of mice were injected with HCT116 cell suspension so that tumors in a volume range as narrow as possible were selected for the trial on the day of treatment initiation. Animals with tumors in the proper size range were assigned to various treatment groups. RX-3117 was dissolved in 10% DMSO in PBS and solvent alone served as control. All study medications (control, RX-3117: 2 mg/kg/day, RX-3117: 10 mg/kg/day) were given by intraperitoneal injections three times per week starting from day 5 and ending on day 37. To quantify tumor growth, three perpendicular diameters of the tumors were measured with calipers every 3-5 days, and the body weight of the mice was monitored for toxicity. The tumor volume was calculated using the formula: tumor volume (mm^3)=(width)×(length)×(height)×π/6."}}, "data": [{"compound": "Nc1ccn([C@@H]2C(F)=C(CO)[C@@H](O)[C@H]2O)c(=O)n1", "note": "[RX-3117, (1S,4R,5S)-4-Amino-1-(2-fluoro-4,5-dihydroxy-3-hydroxymethyl-cyclopent-2-enyl)-1H-pyrimidin-2-one]", "values": [{"measurement": "IC50", "setting": "MDA-MB-231 (breast)", "result": 180, "unit": "nM"}, {"measurement": "IC50", "setting": "HCT116 (colon)", "result": 190, "unit": "nM"}, {"measurement": "IC50", "setting": "NCI-H226 (lung)", "result": 250, "unit": "nM"}, {"measurement": "IC50", "setting": "HT-29 (colon)", "result": 280, "unit": "nM"}, {"measurement": "IC50", "setting": "MKN-45 (stomach)", "result": 340, "unit": "nM"}, {"measurement": "IC50", "setting": "[1]", "result": 340, "unit": "nM"}, {"measurement": "IC50", "setting": "A549 (lung)", "result": 500, "unit": "nM"}, {"measurement": "IC50", "setting": "PANC-1 (pancreas)", "result": 620, "unit": "nM"}, {"measurement": "IC50", "setting": "PC3 (prostate)", "result": 630, "unit": "nM"}, {"measurement": "IC50", "setting": "HepG2 (liver)", "result": 790, "unit": "nM"}, {"measurement": "IC50", "setting": "OVCAR-3 (ovary)", "result": 800, "unit": "nM"}, {"measurement": "IC50", "setting": "U251 (brain)", "result": 830, "unit": "nM"}, {"measurement": "IC50", "setting": "UMRC2 (kidney)", "result": 830, "unit": "nM"}, {"measurement": "IC50", "setting": "HeLa (cervix)", "result": 1350, "unit": "nM"}, {"measurement": "IC50", "setting": "SK-MEL-28 (melanoma)", "result": 1380, "unit": "nM"}, {"measurement": "IC50", "setting": "LnCap (prostate)", "result": 2670, "unit": "nM"}, {"measurement": "tumor volume compared to the controls", "setting": "[2]; 2 mg/kg/day", "result": "significantly reduced"}, {"measurement": "tumor volume compared to the controls", "setting": "[2]; 10 mg/kg/day", "result": "significantly reduced"}, {"measurement": "body weight fluctuations", "setting": "[2]; 2 and 10 mg/kg/day", "result": "no more than 1 g"}]}]}
